Counter-ions that a name gives are not always drawn. Activity calls are given as the source filed them. The rule behind the calls is not given here.
Assays:
[1] = target: T1, Amine oxidase [flavin-containing] A (Homo sapiens, UniProt P21397); experiment: Inhibition of MAO-A (unknown origin) measured after 30 to 90 sec by absorbance based assay; conditions: for inhibition (INH): human, time 30-90 sec
T1 sequence (P21397 whole entry): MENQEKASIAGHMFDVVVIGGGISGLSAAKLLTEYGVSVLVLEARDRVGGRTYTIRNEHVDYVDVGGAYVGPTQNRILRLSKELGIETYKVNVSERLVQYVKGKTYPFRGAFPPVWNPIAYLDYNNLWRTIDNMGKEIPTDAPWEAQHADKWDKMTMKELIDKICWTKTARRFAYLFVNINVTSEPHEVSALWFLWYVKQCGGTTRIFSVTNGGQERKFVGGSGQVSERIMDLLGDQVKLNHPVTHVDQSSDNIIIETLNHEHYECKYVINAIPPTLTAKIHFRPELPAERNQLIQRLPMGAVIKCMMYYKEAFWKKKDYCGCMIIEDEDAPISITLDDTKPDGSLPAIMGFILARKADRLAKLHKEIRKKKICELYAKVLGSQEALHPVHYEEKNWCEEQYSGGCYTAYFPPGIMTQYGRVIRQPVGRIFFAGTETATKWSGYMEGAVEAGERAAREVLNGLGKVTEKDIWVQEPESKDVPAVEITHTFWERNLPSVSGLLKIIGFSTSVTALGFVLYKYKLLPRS

Cholinesterase [2] = target: T2, Cholinesterase (Homo sapiens, UniProt P06276); experiment: Inhibition of BChE (unknown origin) using butyrylthiocholine iodide as substrate incubated for 15 mins by DTNB reagent based ELISA
Acetylcholinesterase [3] = target: T3, Acetylcholinesterase (Homo sapiens, UniProt P22303); experiment: Inhibition of AChE (unknown origin) using acetylthiocholine iodide as substrate incubated for 15 mins by DTNB reagent based ELISA
[4] = target: T4, Amine oxidase [flavin-containing] B (Homo sapiens, UniProt P27338); experiment: Inhibition of human recombinant MAO-B expressed in baculovirus infected BTI insect cells measured after 30 to 90 sec by absorbance based assay; conditions: for inhibition (INH): human, bti, time 30-90 sec
T4 sequence (P27338 whole entry): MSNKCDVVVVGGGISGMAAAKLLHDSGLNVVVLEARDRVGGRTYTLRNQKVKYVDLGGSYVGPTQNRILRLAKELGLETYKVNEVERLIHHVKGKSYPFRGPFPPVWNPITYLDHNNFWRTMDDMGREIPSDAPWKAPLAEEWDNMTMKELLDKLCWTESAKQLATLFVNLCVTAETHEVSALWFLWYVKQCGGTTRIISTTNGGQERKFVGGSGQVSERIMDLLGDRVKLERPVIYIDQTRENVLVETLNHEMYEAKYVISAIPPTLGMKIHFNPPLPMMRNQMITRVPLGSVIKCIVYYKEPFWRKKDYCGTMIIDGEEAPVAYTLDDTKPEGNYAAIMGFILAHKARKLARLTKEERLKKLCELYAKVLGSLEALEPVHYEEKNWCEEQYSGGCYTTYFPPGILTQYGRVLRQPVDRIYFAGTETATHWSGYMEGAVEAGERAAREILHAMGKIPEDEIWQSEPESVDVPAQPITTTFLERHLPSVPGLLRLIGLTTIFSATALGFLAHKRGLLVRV

[5] = Antioxidant activity assessed as DPPH radical scavenging activity measured after 30 mins by spectrophotometric analysis; type: functional
Acetylcholinesterase [6] = target: T3, Acetylcholinesterase; experiment: Inhibition of human recombinant AChE using acetylthiocholine iodide as substrate preincubated for 5 mins followed by substrate addition and measured after 2 mins by absorbance based microplate reader
Cholinesterase [7] = target: T2, Cholinesterase; experiment: Inhibition of human BChE using butyrylthiocholine iodide as substrate preincubated for 5 mins followed by substrate addition and measured after 2 mins by absorbance based microplate reader
[8] = Selectivity index, ratio of IC50 for inhibition of BChE (unknown origin) using butyrylthiocholine iodide as substrate to IC50 for inhibition of AChE (unknown origin) using acetylthiocholine iodide as substrate
Acetylcholinesterase [9] = target: T3, Acetylcholinesterase; experiment: Potency index, ratio of donepezil IC50 to test compound IC50 for inhibition of AChE (unknown origin) using acetylthiocholine iodide as substrate incubated for 15 mins by DTNB reagent based ELISA

T2 sequence (P06276 whole entry): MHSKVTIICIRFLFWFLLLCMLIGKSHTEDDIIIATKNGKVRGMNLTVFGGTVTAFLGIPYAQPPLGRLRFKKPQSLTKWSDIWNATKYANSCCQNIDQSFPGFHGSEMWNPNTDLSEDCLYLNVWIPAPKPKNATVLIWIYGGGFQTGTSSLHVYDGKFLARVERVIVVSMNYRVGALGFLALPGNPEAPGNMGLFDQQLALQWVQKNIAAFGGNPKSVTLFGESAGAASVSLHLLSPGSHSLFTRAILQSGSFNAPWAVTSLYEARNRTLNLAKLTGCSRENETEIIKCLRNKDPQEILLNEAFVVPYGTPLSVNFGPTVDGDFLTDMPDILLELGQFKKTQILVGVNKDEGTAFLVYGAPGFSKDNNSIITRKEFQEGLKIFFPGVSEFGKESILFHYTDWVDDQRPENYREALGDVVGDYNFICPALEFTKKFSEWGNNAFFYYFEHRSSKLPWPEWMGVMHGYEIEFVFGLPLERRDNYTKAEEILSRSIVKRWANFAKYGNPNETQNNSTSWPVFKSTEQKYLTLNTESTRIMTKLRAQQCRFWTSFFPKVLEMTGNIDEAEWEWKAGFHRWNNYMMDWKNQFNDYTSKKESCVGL
T3 sequence (P22303 whole entry): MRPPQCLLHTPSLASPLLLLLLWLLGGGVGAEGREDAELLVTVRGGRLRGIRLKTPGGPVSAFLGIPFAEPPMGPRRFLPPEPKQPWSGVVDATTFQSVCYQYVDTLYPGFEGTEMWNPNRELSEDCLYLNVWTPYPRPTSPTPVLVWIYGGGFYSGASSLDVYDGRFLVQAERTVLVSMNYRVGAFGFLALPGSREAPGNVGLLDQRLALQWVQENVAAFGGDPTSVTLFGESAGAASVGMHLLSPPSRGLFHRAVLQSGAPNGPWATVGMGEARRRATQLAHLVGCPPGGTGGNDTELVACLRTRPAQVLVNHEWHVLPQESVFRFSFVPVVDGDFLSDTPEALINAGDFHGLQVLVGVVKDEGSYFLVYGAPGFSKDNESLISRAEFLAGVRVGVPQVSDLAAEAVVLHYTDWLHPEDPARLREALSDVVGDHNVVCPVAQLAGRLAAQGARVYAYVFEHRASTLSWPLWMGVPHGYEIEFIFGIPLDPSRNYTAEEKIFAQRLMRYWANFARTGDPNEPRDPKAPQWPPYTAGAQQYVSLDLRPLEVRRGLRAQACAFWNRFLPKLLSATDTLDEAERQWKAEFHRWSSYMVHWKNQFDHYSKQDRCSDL

Row | Structure (SMILES) | IC50 [1] [µM] | inhibition (Cholinesterase [2]) | inhibition (Acetylcholinesterase [3]) | inhibition (INH) [4] | Activity [5] | IC50 (Acetylcholinesterase [6]) [µM] | IC50 (Cholinesterase [7]) [µM] | IC50 [4] [µM] | inhibition (INH) [1] | Ratio IC50 [8] | IC50 (Cholinesterase [2]) [µM] | Ratio IC50 (Acetylcholinesterase [9]) | IC50 (Acetylcholinesterase [3]) [µM] | IC50 [5] [µM]
1 | CC(CCCCn1c(=O)c2c(ncn2C)n(C)c1=O)=NNC(=O)COc1ccccc1-c1nc(Cc2ccccc2)no1 | 957 | inactive | inactive | Not Active | inactive | – | – | – | – | – | – | – | – | –
2 | Cc1cc(=O)oc2cc(OCc3ccc(-c4noc([C@@H]5CCCN5)n4)cc3)ccc12 | – | – | – | – | – | 77.6 | 8.17 | – | – | – | – | – | – | –
3 | OC(CCN1CCCCC1)(c1ccccc1)C1CC2C=CC1C2 (centres undefined) [BIPERIDEN HYDROCHLORIDE] | – | – | – | – | – | – | – | 266 | – | – | – | – | – | –
4 | Cc1noc(-c2ccc(N)cc2)n1 | – | – | – | Not Active | – | – | – | – | Not Active | 1320 | 138 | 1.01 | 0.104 | 105
5 | CCCNC(C)C(=O)Nc1c(C)csc1-c1nc(C)no1 (centres undefined) | 1260 | – | – | Not Active | inactive | – | – | – | – | 622 | 125 | – | 0.201 | –
6 | CC(=NNC(=O)COc1ccccc1-c1nc(Cc2ccccc2)no1)c1nnn(-c2ccc(S(N)(=O)=O)cc2)c1C | – | inactive | inactive | Not Active | inactive | – | – | – | Not Active | – | – | – | – | –
7 | Cc1cc(NS(=O)(=O)c2ccc(-n3cc(COc4ccccc4-c4nc(-c5ccc(C(F)(F)F)cc5)no4)nn3)cc2)no1 | 273 | inactive | inactive | Not Active | inactive | – | – | – | – | – | – | – | – | –
8 | CC(CCCCn1c(=O)c2c(ncn2C)n(C)c1=O)=NNC(=O)COc1ccccc1-c1nc(-c2ccccc2)no1 | – | – | – | Not Active | inactive | – | – | – | Not Active | 159 | 15 | 1.01 | 0.094 | –
9 | CCCCOc1cc(-c2nc(-c3ccccc3)no2)ccc1N | – | – | – | Not Active | – | – | – | – | Not Active | 60.3 | 11.5 | – | 0.191 | 59.2
10 | CCCCOc1cc(-c2nc(C)no2)ccc1N | – | – | – | Not Active | inactive | – | – | – | Not Active | 3010 | 47.6 | 1.01 | 0.016 | –
11 | CCCNC(C)C(=O)Nc1c(C)csc1-c1nc(-c2ccccc2N)no1 (centres undefined) | 248 | – | – | – | – | – | – | 289 | – | 449 | 54.5 | 1.01 | 0.121 | 959
12 | CCCNC(C)C(=O)Nc1c(C)csc1-c1nc(Cc2ccccc2)no1 (centres undefined) | 197 | – | – | – | – | – | – | 74.7 | – | 856 | 41.4 | 1.01 | 0.048 | 1350
13 | CCCNC(C)C(=O)Nc1c(C)csc1-c1nc(-c2ccccc2)no1 (centres undefined) | 380 | – | – | – | – | – | – | 225 | – | 325 | 33.2 | 1.01 | 0.102 | 1150
14 | Cc1cc(NS(=O)(=O)c2ccc(-n3cc(COc4ccccc4-c4nc(-c5ccccc5)no4)nn3)cc2)no1 | – | – | – | Not Active | – | – | – | – | Not Active | 250 | 26.1 | 1.01 | 0.104 | 56.7
15 | Cc1cc(NS(=O)(=O)c2ccc(-n3cc(COc4ccccc4-c4nc(Cc5ccccc5)no4)nn3)cc2)no1 | 533 | inactive | – | Not Active | inactive | – | – | – | – | – | – | 1.01 | 0.103 | –
16 | Nc1ccc(-c2nc(-c3ccccc3N)no2)cc1 | – | – | – | Not Active | inactive | – | – | – | Not Active | 427 | 85.6 | – | 0.201 | –
17 | O=C1O[C@H]([C@@H](O)CO)C(O)=C1O [ASCORBIC ACID] | – | – | – | – | – | – | – | – | – | – | – | – | – | 74.5
18 | Cc1cc(NS(=O)(=O)c2ccc(NC(=O)COc3ccccc3-c3nc(-c4ccccc4)no3)cc2)no1 | – | – | – | Not Active | inactive | – | – | – | Not Active | 283 | 26.7 | 1.01 | 0.094 | –
